Molecular target: T1, hDGAT1 (Homo sapiens, UniProt O75907)
T1 sequence (O75907 1-488): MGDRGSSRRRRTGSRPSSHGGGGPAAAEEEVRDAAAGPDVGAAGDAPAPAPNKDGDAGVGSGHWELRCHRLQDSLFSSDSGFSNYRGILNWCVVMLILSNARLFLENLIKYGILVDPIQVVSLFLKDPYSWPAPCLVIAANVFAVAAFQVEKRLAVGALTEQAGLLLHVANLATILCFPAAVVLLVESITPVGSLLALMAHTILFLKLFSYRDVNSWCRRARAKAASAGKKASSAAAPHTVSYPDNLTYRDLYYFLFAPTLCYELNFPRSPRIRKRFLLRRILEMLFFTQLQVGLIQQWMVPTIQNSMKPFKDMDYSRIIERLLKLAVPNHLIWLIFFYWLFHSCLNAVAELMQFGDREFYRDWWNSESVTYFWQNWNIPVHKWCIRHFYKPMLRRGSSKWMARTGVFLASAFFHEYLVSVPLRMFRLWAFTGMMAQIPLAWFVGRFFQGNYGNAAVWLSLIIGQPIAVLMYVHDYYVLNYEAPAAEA
Assay: In-vitro DGAT1 assay (14C oleoyl CoA, hDGAT1 microsomes from Sf9 cells)
Conditions: for inhibition at 1 µM: read-out: % Inhibition of hDGAT1; for % Inhibition of hDGAT1: at 1 μM

Row | Compound | inhibition at 1 µM [%] | % Inhibition of hDGAT1
1 | CC(C)[C@@H](C(=O)O)N1Cc2ccc(-c3ccc(NC(=O)c4ccc(N5CCCCC5)nc4)cc3)cc2C1=O [Example 215, (S)-3-Methyl-2-(1-oxo-6-(4-(6-(piperidin-1-yl)nicotinamido)phenyl)isoindolin-2-yl)butanoic acid] | > 50 | 
2 | CC(C)[C@@H](C(=O)O)N1Cc2ccc(-c3ccc(NS(=O)(=O)c4ccc(F)c(F)c4)cc3)cc2C1=O [Example 82, (S)-2-(6-(4-(3,4-Difluorophenylsulfonamido)phenyl)-1-oxoisoindolin-2-yl)-3-methylbutanoic acid] | 10 to 50 | 
3 | CCCCCc1ccc(C(=O)Nc2ccc(-c3ccc4c(c3)C(=O)N([C@H](C(=O)O)C(C)C)C4)c(Cl)c2)cc1 [Example 486, (S)-2-(6-(2-Chloro-4-(4-pentylbenzamido)phenyl)-1-oxoisoindolin-2-yl)-3-methylbutanoic acid] | > 50 | 
4 | CC(C)(C)c1ccc(C(=O)Nc2ccc(-c3ccc4c(c3)C(=O)N(C(C)(C)C(=O)O)C4)cc2)cc1 [Example 519, 2-(6-(4-(4-(tert-Butyl)benzamido)phenyl)-1-oxoisoindolin-2-yl)-2-methyl propanoic acid] | > 50 | 
5 | O=C(Nc1ccc(-c2ccc3c(c2)C(=O)N(C24C[C@@H]5C[C@@H](CC(C(=O)O)(C5)C2)C4)C3)cc1)c1cccc(Cl)c1 [Example 567, (1r,3s,5R,7S)-3-(6-(4-(3-Chlorobenzamido)phenyl)-1-oxoisoindolin-2-yl)adamantane-1-carboxylic acid] |  | + (10-50% Inhibition)
6 | CCCCc1ccc(C(=O)Nc2ccc(-c3ccc4c(c3)C(=O)N([C@H](C(=O)O)C(C)C)C4)cc2)nc1 [Example 649, (S)-2-(6-(4-(5-Butylpicolinamido)phenyl)-1-oxoisoindolin-2-yl)-3-methylbutanoic acid] | > 50 | 
7 | CC(C)[C@@H](C(=O)O)N1Cc2cc(-c3ccc(NC(=O)c4ccc(F)cc4)cc3)ccc2C1=O [Example 307, (S)-2-(5-(4-(4-Fluorobenzamido)phenyl)-1-oxoisoindolin-2-yl)-3-methylbutanoic acid] | 10 to 50 | 
8 | CC(C)[C@@H](C(=O)O)N1Cc2ccc(-c3ccc(NC(=O)c4cccc5ccccc45)cc3)cc2C1=O [Example 178, (S)-2-(6-(4-(1-Naphthamido)phenyl)-1-oxoisoindolin-2-yl)-3-methylbutanoic acid] | 10 to 50 | 
9 | CC(C)[C@@H](C(=O)O)N1Cc2ccc(-c3ccc(NC(=O)c4ncc(-c5ccccc5)s4)cc3)cc2C1=O [Example 612, (S)-3-Methyl-2-(1-oxo-6-(4-(5-phenylthiazole-2-carboxamido)phenyl)isoindolin-2-yl)butanoic acid] | > 50 | 
10 | O=C(Nc1ccc(-c2ccc3c(c2)C(=O)N(C2CCCC(C(=O)O)C2)C3)cc1)c1ccc(Cl)cc1 (stereo not shown) [Example 549, 3-(6-(4-(4-Chlorobenzamido)phenyl)-1-oxoisoindolin-2-yl)cyclohexane carboxylic acid] | > 50 | 
11 | COc1cc(NC(=O)c2ccc(OC(F)(F)F)cc2)ccc1-c1ccc2c(c1)C(=O)N([C@H](C(=O)O)C(C)C)C2 [Example 464, (S)-2-(6-(2-Methoxy-4-(4-(trifluoromethoxy)benzamido)phenyl)-1-oxoisoindolin-2-yl)-3-methylbutanoic acid] | 10 to 50 | 
12 | CCCCCc1ccc(C(=O)Nc2ccc(-c3ccc4c(c3)C(=O)N([C@H](C(=O)O)C(C)C)C4)c(C(F)(F)F)c2)cc1 [Example 430, (S)-3-Methyl-2-(1-oxo-6-(4-(4-pentylbenzamido)-2-(trifluoromethyl)phenyl)isoindolin-2-yl)butanoic acid] | 10 to 50 | 
13 | CC(C)[C@@H](C(=O)O)N1Cc2ccc(-c3cnc(NC(=O)c4ccc(C(C)(C)C)cc4)cn3)cc2C1=O [Example 505, (S)-2-(6-(5-(4-tert-Butylbenzamido)pyrazin-2-yl)-1-oxoisoindolin-2-yl)-3-methylbutanoic acid] | 10 to 50 | 
14 | CC(C)[C@@H](C(=O)O)N1Cc2cc(-c3ccc(NC(=S)Nc4ccc(C#N)cc4)cc3)ccc2C1=O [Example 269, (S)-2-(5-(4-(3-(4-Cyanophenyl)thioureido)phenyl)-1-oxoisoindolin-2-1)-3-methyl butanoic acid] |  | + (10-50% Inhibition)
15 | CC(C)[C@@H](C(=O)O)N1Cc2cc(-c3ccc(NC(=O)c4ccc(C(C)(C)C)cc4)cc3)ccc2C1=O [Example 323, (S)-2-(5-(4-(4-tert-Butylbenzamido)phenyl)-1-oxoisoindolin-2-yl)-3-methyl butanoic acid] | 10 to 50 | 
16 | O=C(Nc1ccc(-c2ccc3c(c2)C(=O)N(C24C[C@@H]5C[C@@H](CC(C(=O)O)(C5)C2)C4)C3)cc1)c1ccc(C(F)(F)F)cc1 [Example 571, (1r,3s,5R,7S)-3-(1-Oxo-6-(4-(4-(trifluoromethyl)benzamido)phenyl)isoindolin-2-yl)adamantane-1-carboxylic acid] |  | ++ (>50% Inhibition)
17 | Cc1ccc(C(=O)Nc2ccc(-c3ccc4c(c3)CN([C@H](C(=O)O)C(C)C)C4=O)cc2)cc1 [Example 319, (S)-3-Methyl-2-(5-(4-(4-methylbenzamido)phenyl)-1-oxoisoindolin-2-yl)butanoic acid] | 10 to 50 | 

Now from value to compound:

Row | inhibition at 1 µM [%] | % Inhibition of hDGAT1 | Compound
18 | > 50 |  | C[C@@H](C(=O)O)N1Cc2ccc(-c3ccc(NC(=O)Nc4cccc(C(F)(F)F)c4)cc3)cc2C1=O [Example 337, (S)-2-(1-Oxo-6-(4-(3-(3-(trifluoromethyl)phenyl)ureido)phenyl)isoindolin-2-yl)propanoic acid]
19 | > 50 |  | CC(C)[C@@H](C(=O)O)N1Cc2ccc(-c3ccc(NC(=S)Nc4ccc(C#N)cc4)cc3)cc2C1=O [Example 68, (S)-2-(6-(4-(3-(4-Cyanophenyl)thioureido)phenyl)-1-oxoisoindolin-2-yl)-3-methyl butanoic acid]
20 | > 50 |  | O=C(Nc1ccc(-c2ccc3c(c2)C(=O)N(C2(C(=O)O)CC2)C3)cc1)c1ccc(C(F)(F)F)cc1 [Example 590, 1-(1-Oxo-6-(4-(4-(trifluoromethyl)benzamido)phenyl)isoindolin-2-yl)cyclo propane carboxylic acid]
21 | 10 to 50 |  | CC(C)[C@@H](C(=O)O)N1Cc2ccc(-c3ccc(NC(=S)Nc4cccc(C#N)c4)cc3)cc2C1=O [Example 70, (S)-2-(6-(4-(3-(3-Cyanophenyl)thioureido)phenyl)-1-oxoisoindolin-2-yl)-3-methylbutanoic acid]
22 | 10 to 50 |  | CC(C)C[C@@H](C(=O)O)N1Cc2ccc(-c3ccc(NC(=O)Nc4cccc(C(F)(F)F)c4)cc3)cc2C1=O [Example 352, (S)-4-Methyl-2-(1-oxo-6-(4-(3-(3-(trifluoromethyl)phenyl)ureido)phenyl)isoindolin-2-yl)pentanoic acid]
23 | 10 to 50 |  | CC(C)[C@@H](C(=O)O)N1Cc2ccc(-c3ccc(NC(=O)Cc4ccccc4)cc3)cc2C1=O [Example 659, (S)-3-Methyl-2-(1-oxo-6-(4-(2-phenylacetamido)phenyl)isoindolin-2-yl)butanoic acid]
24 | > 50 |  | CC(C)[C@@H](C(=O)O)N1Cc2ccc(-c3ccc(NC(=O)c4cccc(Cl)c4)cc3)cc2C1=O [Example 108, (S)-2-(6-(4-(3-Chlorobenzamido)phenyl)-1-oxoisoindolin-2-yl)-3-methylbutanoic acid]
25 | 10 to 50 |  | O=C(O)CN1Cc2ccc(-c3ccc(NC(=O)Nc4cccc(C(F)(F)F)c4)cc3)cc2C1=O [Example 334, 2-(1-Oxo-6-(4-(3-(3-(trifluoromethyl)phenyl)ureido)phenyl)isoindolin-2-yl)acetic acid]
26 | 10 to 50 |  | CC(C)[C@@H](C(=O)O)N1Cc2ccc(-c3ccc(NC(=O)Nc4ccc(F)cc4)cc3)cc2C1=O [Example 8, (S)-2-(6-(4-(3-(4-Fluorophenyl)ureido)phenyl)-1-oxoisoindolin-2-yl)-3-methyl butanoic acid]
27 | > 50 |  | CC(C)[C@@H](C(=O)O)N1Cc2ccc(-c3ccc(NC(=O)Nc4cc(Cl)ccc4Oc4ccccc4)cc3)cc2C1=O [Example 46, (S)-2-(6-(4-(3-(5-Chloro-2-phenoxyphenyl)ureido)phenyl)-1-oxoisoindolin-2-yl)-3-methylbutanoic acid]
28 | > 50 |  | CC(C)[C@@H](C(=O)O)N1Cc2ccc(-c3ccc(NC(=O)Nc4ccc(C#N)cc4)cc3)cc2C1=O [Example 40, (S)-2-(6-(4-(3-(4-Cyanophenyl)ureido)phenyl)-1-oxoisoindolin-2-yl)-3-methyl butanoic acid]
29 |  | ++ (>50% Inhibition) | O=C(Nc1ccc(-c2ccc3c(c2)C(=O)N([C@@H]2CCC[C@@H]2C(=O)O)C3)cc1)c1ccc(C(F)(F)F)cc1 [Example 598, (1S,2R)-2-(1-Oxo-6-(4-(4-(trifluoromethyl)benzamido)phenyl)isoindolin-2-yl)cyclopentanebcarboxylic acid]
30 | > 50 |  | CC(C)[C@@H](C(=O)O)N1Cc2ccc(-c3ccc(NC(=O)Nc4ccc(Oc5ccccc5)cc4)cc3)cc2C1=O [Example 50, (S)-3-Methyl-2-(1-oxo-6-(4-(3-(4-phenoxyphenyl)ureido)phenyl)isoindolin-2-yl)butanoic acid]
31 |  | ++ (>50% Inhibition) | CC(C)[C@@H](C(=O)O)N1Cc2ccc(-c3ccc(NC(=S)Nc4ccccc4C(F)(F)F)cc3)cc2C1=O [Example 66]
